Test results from publication PMC7894522, “Structure Based Design of Bicyclic Peptide Inhibitors of RbAp48” (Angewandte Chemie (International Ed. in English), 2020).
Starred links: 1 amine or outer side, 2 acyl side, 3 side chain; linkers in the order of their positions; H or OH if unused. Positions of bridges follow the written chain, without caps; N, C: chain ends. Residues, ends and D or L forms follow the SMILES beside them. Pyridine(2,6-diCH2) = c1cc(C[*:1])nc(C[*:2])c1; TBMB = c1c(C[*:1])cc(C[*:3])cc1C[*:2]; mXylylene = c1cc(C[*:1])cc(C[*:2])c1; oXylylene = c1ccc(C[*:2])c(C[*:1])c1; X2 = c1ccc2c(C[*:2])ccc(C[*:1])c2c1; pXylylene = c1cc(C[*:2])ccc1C[*:1]

biological target: RbAp48 (Homo sapiens, UniProt Q09028); assay: Competitive fluorescence polarization (FP) assay using complex of peptide 1 and RbAp48; assay type: binding; set-up: Full length RbAp48 was cloned; His tag followed by 3C cleavage site (N, cleaved yes); made in house; host or cells: Sf9 insect cells; details: Supplemental Table 2; competitive FP, tracer 1 nM, RbAp48 15 nM, pH 7.5, 30 min room temperature; read-out: IC50
Sequence (Q09028 whole entry, the tested form may be a part): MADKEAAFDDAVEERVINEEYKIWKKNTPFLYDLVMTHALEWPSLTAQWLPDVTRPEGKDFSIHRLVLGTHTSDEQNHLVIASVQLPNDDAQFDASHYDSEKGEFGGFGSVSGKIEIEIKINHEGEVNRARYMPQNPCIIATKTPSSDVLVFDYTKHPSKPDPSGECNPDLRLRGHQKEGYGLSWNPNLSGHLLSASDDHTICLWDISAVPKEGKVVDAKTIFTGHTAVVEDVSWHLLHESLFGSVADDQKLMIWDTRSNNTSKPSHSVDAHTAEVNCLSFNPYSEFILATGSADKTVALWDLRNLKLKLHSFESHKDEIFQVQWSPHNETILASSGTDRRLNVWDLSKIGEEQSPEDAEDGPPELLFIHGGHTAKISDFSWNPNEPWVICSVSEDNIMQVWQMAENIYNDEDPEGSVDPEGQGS
Description: The binding affinity of our library of synthetic cyclic peptides was evaluated by a competitive fluorescence polarization (FP) assay using a complex formed by peptide 1 and RbAp48. To reduce the length of the peptide it was truncated to the amino acids which seemed most critical according to the crystal structure (residues 676–689, pdb:4pbz). […] We chose to use a cyclization approach to regain affinity, that is, not to induce more interactions but through minimizing the entropic penalty upon binding by reducing the flexibility of the peptide. To this end two amino acids were chosen which are facing one another in the structure (see Figure 1 B/D/E). Two peptides were designed where glutamic acid was used in position 676 (4) or position 680 (5) and lysine in position 688 for both peptides (see Table 1). The macrocycles were formed by connecting the side chains via an amide bond (see Figure 1 D/E). Peptide synthesis was performed on Rink‐amide resin using the Fmoc‐strategy incorporating Fmoc‐L‐Glu(All)‐OH and Fmoc‐L‐Lys(Alloc)‐OH at the sites for cyclization. After completion of the linear synthesis the allyl protecting groups were removed using Pd^0 catalysis and the amide link was formed by using PyBOP. […] Therefore, a range of peptides was synthesized which were cyclized using the same amino acid positions but via a cysteine alkylation strategy (see Figure 1 D/E and Table 1). In this method the residues used for cyclization are replaced with cysteine and benzylic dibromides act as crosslinkers on the unprotected peptides. ^[11] Previous research has shown that such linkers can effectively stabilize cyclic peptides and yield high affinity ligands for protein–protein interaction inhibition. ^[12] Such a linker introduces a xylene group in close vicinity of the hydrophobic patch potentially reconstituting the lost key hydrophobic interactions. To explore a variety of macrocycle conformations we used either ortho‐, meta‐ or para‐substituted dibromides to exchange the linker in both 4 and 5 (see Figure 1 D/E and Table 1). ^[13]
Protein expression and purification
RbAp48 was expressed and purified by the Dortmund Protein Facility. Full length RbAp48 was cloned into a pOPIN vector ligating it to an N-terminal His tag followed by a 3C cleavage site. The protein was expressed from Sf9 cells for 48 h. Cells were harvested and lysed and the protein was purified by loading onto a HisTrap FF crude 5 ml column followed by on-column cleavage using Precission protease. The cleaved protein was then further purified using a HiLoad 26/60 Superdex 200 column.
Fluorescence polarization assay
Fluorescence polarization assays were performed in 384 wells plates in 80 µl volumes. The assay buffer contains 20 mM Tris-HCl, 150 mM NaCl, 0.01% Tween-20 at pH 7.5. The concentration of the fluorescently labelled peptides was 1 nM plates were incubated at room temperature for 30 min before they were read on a Tecan Spark plate reader (λex = 485 nm, λem = 535 nm).
For competitive assays the same conditions were used with a tracer concentration of 1 nM was used and a protein concentration of 15 nM .

SMILES | IC50 [nM]
CC(=O)N[C@H]1CSCc2cccc(c2)CSC[C@@H](C(=O)N[C@@H](CC(N)=O)C(N)=O)NC(=O)[C@@H]2CCCN2C(=O)[C@H](CC(C)C)NC(=O)[C@H](Cc2ccc(O)cc2)NC(=O)[C@@H]2CCCN2C(=O)[C@H](Cc2c[nH]cn2)NC(=O)[C@H](CCCNC(=N)N)NC(=O)[C@H](C)NC(=O)[C@H](C)NC(=O)[C@H](Cc2c[nH]cn2)NC(=O)[C@H](Cc2c[nH]c3ccccc23)NC(=O)[C@@H]2CCCN2C1=O [Peptide 18] (Ac-CPWHAARHPYLPCN-NH2; linker 1-13 via mXylylene) | > 10000
CC(=O)N[C@H]1CSCc2ccc(cc2)CSC[C@@H](C(=O)N[C@@H](C)C(N)=O)NC(=O)[C@@H]2CCCN2C(=O)[C@H](CCCCN)NC(=O)[C@H](Cc2ccc(O)cc2)NC(=O)[C@@H]2CCCN2C(=O)[C@H](CCCNC(=N)N)NC(=O)[C@H](CCCNC(=N)N)NC(=O)[C@H](C)NC(=O)[C@H](C)NC(=O)[C@H](Cc2c[nH]cn2)NC(=O)[C@H](CCCCN)NC(=O)[C@H]([C@@H](C)O)NC1=O [Peptide 25] (Ac-CTKHAARRPYKPCA-NH2; linker 1-13 via pXylylene) | 303 ± 85.9
CC[C@H](C)[C@H](NC(=O)[C@@H]1CCCN1C(=O)[C@H](CC(C)C)NC(=O)[C@H](Cc1ccc(O)cc1)NC(=O)[C@@H]1CCCN1C(=O)[C@H](Cc1c[nH]cn1)NC(=O)[C@H](CCCNC(=N)N)NC(=O)[C@H](C)NC(=O)[C@H](C)NC(=O)[C@H](Cc1c[nH]cn1)NC(=O)[C@H](Cc1c[nH]c2ccccc12)NC(=O)[C@@H]1CCCN1C(=O)[C@H](CCCNC(=N)N)NC(=O)[C@H](CC(C)C)NC(C)=O)C(=O)N[C@@H](CC(N)=O)C(N)=O [Peptide 14] (Ac-LRPWHAARHPYLPIN-NH2) | > 10000
CC(=O)N[C@H]1CSCc2ccc(c3ccccc23)CSC[C@@H](C(=O)N[C@@H](C)C(N)=O)NC(=O)[C@@H]2CCCN2C(=O)[C@H](CCCCN)NC(=O)[C@H](Cc2ccc(O)cc2)NC(=O)[C@@H]2CCCN2C(=O)[C@H](CCCNC(=N)N)NC(=O)[C@H](CCCNC(=N)N)NC(=O)[C@H](C)NC(=O)[C@H](C)NC(=O)[C@H](CCCNC(=N)N)NC(=O)[C@H](CCCCN)NC(=O)[C@H]([C@@H](C)O)NC1=O [Peptide 32] (Ac-CTKRAARRPYKPCA-NH2; linker 1-13 via X2 (inferred)) | 43.7 ± 6.4
CC(=O)N[C@H]1CSCc2cccc(c2)CSC[C@@H](C(=O)N[C@@H](C)C(N)=O)NC(=O)[C@@H]2CCCN2C(=O)[C@H](CCCCN)NC(=O)[C@H](Cc2ccc(O)cc2)NC(=O)[C@@H]2CCCN2C(=O)[C@H](CCCNC(=N)N)NC(=O)[C@H](CCCNC(=N)N)NC(=O)[C@H](C)NC(=O)[C@H](C)NC(=O)[C@H](CCCNC(=N)N)NC(=O)[C@H](CCCCN)NC(=O)[C@@H]2CCCN2C1=O [Peptide 20] (Ac-CPKRAARRPYKPCA-NH2; linker 1-13 via mXylylene) | 22.3 ± 0.03
CC[C@H](C)[C@H](NC(=O)[C@@H]1CCCN1C(=O)[C@H](CC(C)C)NC(=O)[C@H](Cc1ccc(O)cc1)NC(=O)[C@@H]1CCCN1C(=O)[C@H](Cc1c[nH]cn1)NC(=O)[C@H](CCCNC(=N)N)NC(=O)[C@H](C)NC(=O)[C@H](C)NC(=O)[C@H](Cc1c[nH]cn1)NC(=O)[C@H](Cc1c[nH]c2ccccc12)NC(=O)[C@@H]1CCCN1C(=O)[C@H](CCCNC(=N)N)NC(C)=O)C(=O)N[C@@H](CC(N)=O)C(N)=O [Peptide 15] (Ac-RPWHAARHPYLPIN-NH2) | > 10000
CC(=O)N[C@H]1CSCc2cccc(c2)CSC[C@@H](C(=O)N[C@@H](C)C(N)=O)NC(=O)[C@@H]2CCCN2C(=O)[C@H](CCCCN)NC(=O)[C@H](Cc2ccc(O)cc2)NC(=O)[C@@H]2CCCN2C(=O)[C@H](CCCNC(=N)N)NC(=O)[C@H](CCCNC(=N)N)NC(=O)[C@H](C)NC(=O)[C@H](C)NC(=O)[C@H](CCCNC(=N)N)NC(=O)[C@H](Cc2c[nH]c3ccccc23)NC(=O)[C@H]([C@@H](C)O)NC1=O [Peptide 22] (Ac-CTWRAARRPYKPCA-NH2; linker 1-13 via mXylylene) | 315 ± 57.8
CC(=O)N[C@H]1CSCc2ccc(cc2)CSC[C@@H](C(=O)N[C@@H](C)C(N)=O)NC(=O)[C@@H]2CCCN2C(=O)[C@H](CCCCN)NC(=O)[C@H](Cc2ccc(O)cc2)NC(=O)[C@@H]2CCCN2C(=O)[C@H](CCCNC(=N)N)NC(=O)[C@H](CCCNC(=N)N)NC(=O)[C@H](C)NC(=O)[C@H](C)NC(=O)[C@H](CCCNC(=N)N)NC(=O)[C@H](Cc2c[nH]c3ccccc23)NC(=O)[C@H]([C@@H](C)O)NC1=O [Peptide 23] (Ac-CTWRAARRPYKPCA-NH2; linker 1-13 via pXylylene) | 245 ± 29.3

same assay, conditions: Table 1; competitive FP, tracer peptide 1 1 nM, RbAp48 15 nM, 20 mM Tris-HCl, 150 mM NaCl, 0.01% Tween-20, pH 7.5, 30 min room temperature; lower limit set by 15 nM protein; read-out: IC50

SMILES | IC50 [nM]
CC(=O)N[C@@H](CCC(=O)O)C(=O)N[C@H](C(=O)N[C@@H](CCCCN)C(=O)N[C@@H](CCCNC(=N)N)C(=O)N[C@H]1CSCc2cccc(n2)CSC[C@@H](C(=O)N[C@@H](C)C(N)=O)NC(=O)[C@@H]2CCCN2C(=O)[C@H](CCCCN)NC(=O)[C@H](Cc2ccc(O)cc2)NC(=O)[C@@H]2CCCN2C(=O)[C@H](CCCNC(=N)N)NC(=O)[C@H](CCCNC(=N)N)NC(=O)[C@H](C)NC1=O)[C@@H](C)O [Peptide 13] (Ac-ETKRCARRPYKPCA-NH2; linker 5-13 via Pyridine(2,6-diCH2)) | 147 ± 10.7
CC(=O)N[C@H]1CSCc2cc3cc(c2)CSC[C@@H](C(=O)N[C@@H](C)C(N)=O)NC(=O)[C@@H]2CCCN2C(=O)[C@H](CCCCN)NC(=O)[C@H](Cc2ccc(O)cc2)NC(=O)[C@H](C)NC(=O)[C@H](CCCNC(=N)N)NC(=O)[C@H](CCCNC(=N)N)NC(=O)[C@H](C)NC(=O)[C@H](CSC3)NC(=O)[C@H](CCCNC(=N)N)NC(=O)[C@H](CCCCN)NC(=O)[C@H]([C@@H](C)O)NC1=O [Peptide 42] (Ac-CTKRCARRAYKPCA-NH2; linker 1-5-13 via TBMB) | 131 ± 15.3
CC(=O)N[C@@H](CCC(=O)O)C(=O)N[C@H](C(=O)N[C@@H](CCCCN)C(=O)N[C@@H](CCCNC(=N)N)C(=O)N[C@H]1CSCc2ccccc2CSC[C@@H](C(=O)N[C@@H](C)C(N)=O)NC(=O)[C@@H]2CCCN2C(=O)[C@H](CCCCN)NC(=O)[C@H](Cc2ccc(O)cc2)NC(=O)[C@@H]2CCCN2C(=O)[C@H](CCCNC(=N)N)NC(=O)[C@H](CCCNC(=N)N)NC(=O)[C@H](C)NC1=O)[C@@H](C)O [Peptide 10] (Ac-ETKRCARRPYKPCA-NH2; linker 5-13 via oXylylene) | 322 ± 56.8
CC(=O)N[C@@H](CCC(=O)O)C(=O)N[C@H](C(=O)N[C@@H](CCCCN)C(=O)N[C@@H](CCCNC(=N)N)C(=O)N[C@H]1CSCc2ccc(cc2)CSC[C@@H](C(=O)N[C@@H](C)C(N)=O)NC(=O)[C@@H]2CCCN2C(=O)[C@H](CCCCN)NC(=O)[C@H](Cc2ccc(O)cc2)NC(=O)[C@@H]2CCCN2C(=O)[C@H](CCCNC(=N)N)NC(=O)[C@H](CCCNC(=N)N)NC(=O)[C@H](C)NC1=O)[C@@H](C)O [Peptide 12] (Ac-ETKRCARRPYKPCA-NH2; linker 5-13 via pXylylene) | 2340 ± 363
CC(=O)N[C@@H](CCC(=O)O)C(=O)N[C@H](C(=O)N[C@@H](CCCCN)C(=O)N[C@@H](CCCNC(=N)N)C(=O)N[C@H]1CCC(=O)NCCCC[C@@H](C(=O)N[C@@H](C)C(N)=O)NC(=O)[C@@H]2CCCN2C(=O)[C@H](CCCCN)NC(=O)[C@H](Cc2ccc(O)cc2)NC(=O)[C@@H]2CCCN2C(=O)[C@H](CCCNC(=N)N)NC(=O)[C@H](CCCNC(=N)N)NC(=O)[C@H](C)NC1=O)[C@@H](C)O [Peptide 5] (Ac-ETKREARRPYKPKA-NH2; lactam 5-13) | 126 ± 32.3
CC(=O)N[C@H]1CSCc2cc3cc(c2)CSC[C@@H](C(=O)N[C@@H](C)C(N)=O)NC(=O)[C@@H]2CCCN2C(=O)[C@H](CCCCN)NC(=O)[C@H](C)NC(=O)[C@@H]2CCCN2C(=O)[C@H](CCCNC(=N)N)NC(=O)[C@H](CCCNC(=N)N)NC(=O)[C@H](C)NC(=O)[C@H](CSC3)NC(=O)[C@H](CCCNC(=N)N)NC(=O)[C@H](CCCCN)NC(=O)[C@H]([C@@H](C)O)NC1=O [Peptide 43] (Ac-CTKRCARRPAKPCA-NH2; linker 1-5-13 via TBMB) | 38.3 ± 1.9

same assay, conditions: competitive FP assay

SMILES | FP activity in words
CC(=O)N[C@H]1CSCc2cccc(c2)CSC[C@@H](C(=O)N[C@@H](C)C(N)=O)NC(=O)[C@@H]2CCCN2C(=O)[C@H](CCCCN)NC(=O)[C@H](Cc2ccc(O)cc2)NC(=O)[C@@H]2CCCN2C(=O)[C@H](CCCNC(=N)N)NC(=O)[C@H](CCCNC(=N)N)NC(=O)[C@H](C)NC(=O)[C@H](C)NC(=O)[C@H](CCCNC(=N)N)NC(=O)[C@H](CCCCN)NC(=O)[C@@H]2CCCN2C1=O [Peptide 20] (Ac-CPKRAARRPYKPCA-NH2; linker 1-13 via mXylylene) | IC50 values similar to those of 7 and 8
